Ratio Ki and Ki data for 20 compounds are collected here from ChEMBL document CHEMBL1140483, “High dopamine transporter selectivity can be displayed by remarkably simple non-nitrogen containing inhibitors” (Bioorg Med Chem Lett, 2007).

Structures are written as SMILES.

Sequence of Sodium-dependent noradrenaline transporter (P23975 whole entry): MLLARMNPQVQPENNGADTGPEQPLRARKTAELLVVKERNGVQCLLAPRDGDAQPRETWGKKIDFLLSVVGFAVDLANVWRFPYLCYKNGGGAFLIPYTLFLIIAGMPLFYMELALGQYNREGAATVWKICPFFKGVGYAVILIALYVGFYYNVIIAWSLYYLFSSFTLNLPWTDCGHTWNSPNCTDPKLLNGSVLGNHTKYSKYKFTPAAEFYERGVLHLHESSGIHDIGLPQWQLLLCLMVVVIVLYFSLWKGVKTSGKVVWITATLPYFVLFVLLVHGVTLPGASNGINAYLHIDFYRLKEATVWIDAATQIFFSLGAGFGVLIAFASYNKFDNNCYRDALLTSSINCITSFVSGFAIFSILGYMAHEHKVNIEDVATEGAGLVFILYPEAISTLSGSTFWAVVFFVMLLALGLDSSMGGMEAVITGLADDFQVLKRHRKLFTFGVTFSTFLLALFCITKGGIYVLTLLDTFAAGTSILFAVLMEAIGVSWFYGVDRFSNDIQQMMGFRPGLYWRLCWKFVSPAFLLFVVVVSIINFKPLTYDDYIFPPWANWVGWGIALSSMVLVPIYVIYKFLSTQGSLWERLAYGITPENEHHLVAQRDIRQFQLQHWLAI
Sequence of Sodium-dependent dopamine transporter (Q01959 whole entry): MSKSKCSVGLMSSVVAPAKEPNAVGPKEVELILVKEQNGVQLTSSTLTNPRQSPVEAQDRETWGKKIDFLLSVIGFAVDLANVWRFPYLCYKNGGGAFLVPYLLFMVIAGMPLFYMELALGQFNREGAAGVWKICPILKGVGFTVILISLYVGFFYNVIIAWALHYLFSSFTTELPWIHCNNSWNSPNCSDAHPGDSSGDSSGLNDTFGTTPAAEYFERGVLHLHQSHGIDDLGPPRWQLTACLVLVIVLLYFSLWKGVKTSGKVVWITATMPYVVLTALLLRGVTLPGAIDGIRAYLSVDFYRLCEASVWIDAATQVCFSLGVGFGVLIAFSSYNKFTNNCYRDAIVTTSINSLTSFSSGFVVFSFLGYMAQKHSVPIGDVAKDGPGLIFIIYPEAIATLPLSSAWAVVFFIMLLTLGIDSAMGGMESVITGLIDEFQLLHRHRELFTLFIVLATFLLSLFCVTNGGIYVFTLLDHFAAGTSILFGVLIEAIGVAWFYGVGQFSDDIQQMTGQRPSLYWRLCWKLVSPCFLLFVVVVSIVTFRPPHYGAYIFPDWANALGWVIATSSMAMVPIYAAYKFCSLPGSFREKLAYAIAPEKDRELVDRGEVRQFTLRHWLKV

The species named for one assay is Homo sapiens. In words: Selectivity for human DAT over human SERT.
`CON(C)C(=O)C1=C(c2ccc(Cl)c(Cl)c2)CCC1`: the Ratio Ki stood at 84.

With `O=C(NC1CCC1)C1=C(c2ccc(Cl)c(Cl)c2)CCC1`, the Ratio Ki is > 110.

Consider `O=C(NCc1cccs1)C1=C(c2ccc(Cl)c(Cl)c2)CCC1`, for which the Ratio Ki was 790.

With `O=C(OCCF)C1=C(c2ccc(Cl)c(Cl)c2)CCC1`, the Ratio Ki is 780.

`CONC(=O)C1=C(c2ccc(Cl)c(Cl)c2)CCC1`: the Ratio Ki is > 600.

Turning to `O=C(OCCO)C1=C(c2ccc(Cl)c(Cl)c2)CCC1`, the Ratio Ki came out at 170.

Regarding `O=C(C1=C(c2ccc(Cl)c(Cl)c2)CCC1)N1CCOCC1`, the Ratio Ki is > 45.

`CC(C)OC(=O)C1=C(c2ccc(Cl)c(Cl)c2)CCC1`: the Ratio Ki was found to be 190.

Turning to `O=C(NCc1ccco1)C1=C(c2ccc(Cl)c(Cl)c2)CCC1`, the Ratio Ki was determined as 800.

For the compound `Cc1cccc(OC(=O)C2=C(c3ccc(Cl)c(Cl)c3)CCC2)c1`, the Ratio Ki is > 17000.

As for `Cc1ccccc1OC(=O)C1=C(c2ccc(Cl)c(Cl)c2)CCC1`, the Ratio Ki was > 2300.

With `COC(=O)C1=C(c2ccc(Cl)c(Cl)c2)CCC1`, the Ratio Ki is 410.

Take `O=C(Oc1ccccc1)C1=C(c2ccc(Cl)c(Cl)c2)CCC1`: the Ratio Ki was > 2900.

With `O=C(OC1CCCCC1)C1=C(c2ccc(Cl)c(Cl)c2)CCC1`, the Ratio Ki was > 83.

Take `O=C(C1=C(c2ccc(Cl)c(Cl)c2)CCC1)N1CCCC1`: the Ratio Ki came out at 9.

`O=C(NCCF)C1=C(c2ccc(Cl)c(Cl)c2)CCC1`: the Ratio Ki is > 7100.

In the case of `CCN(CC)C(=O)C1=C(c2ccc(Cl)c(Cl)c2)CCC1`, the Ratio Ki worked out at 3.2.

Consider `O=C(OCc1cccs1)C1=C(c2ccc(Cl)c(Cl)c2)CCC1`, for which the Ratio Ki was 2300.

For `O=C(OCc1ccco1)C1=C(c2ccc(Cl)c(Cl)c2)CCC1`, the Ratio Ki came out at 16.

Another assay addresses Sodium-dependent dopamine transporter (Homo sapiens, UniProt Q01959). Put plainly: Displacement of [125I]RTI55 from human DAT transfected in COS1 cells. The assay is classed as cell-based, COS-1. In general terms: In a radioligand displacement assay an active substance lowers the binding of a labelled ligand.
In the case of `CON(C)C(=O)C1=C(c2ccc(Cl)c(Cl)c2)CCC1`, the Ki is 6.4 µM.

In turn, `O=C(NC1CCC1)C1=C(c2ccc(Cl)c(Cl)c2)CCC1` had a Ki of 9 µM. The Ki values of the last two compounds are within 1.5-fold of each other.

Turning to `O=C(NCc1cccs1)C1=C(c2ccc(Cl)c(Cl)c2)CCC1`, the inhibition constant Ki was determined as 0.14 µM.

Turning to `O=C(OCCF)C1=C(c2ccc(Cl)c(Cl)c2)CCC1`, the affinity corresponds to a Ki of 0.5 µM.

In turn, `CONC(=O)C1=C(c2ccc(Cl)c(Cl)c2)CCC1` gave a Ki of 0.83 µM.

For `O=C(OCCO)C1=C(c2ccc(Cl)c(Cl)c2)CCC1`, the Ki amounted to 0.3 µM.

`O=C(C1=C(c2ccc(Cl)c(Cl)c2)CCC1)N1CCOCC1` gave a Ki of 11 µM.

`CC(C)OC(=O)C1=C(c2ccc(Cl)c(Cl)c2)CCC1` returned a Ki of 2.6 µM. Against the preceding compound, the Ki is about 4.2-fold lower.

Take `O=C(NCc1ccco1)C1=C(c2ccc(Cl)c(Cl)c2)CCC1`: the affinity corresponds to a Ki of 0.03 µM.

For `Cc1cccc(OC(=O)C2=C(c3ccc(Cl)c(Cl)c3)CCC2)c1`, the Ki is 0.06 µM. Against the preceding compound, the Ki is about 2-fold higher.

`Cc1ccccc1OC(=O)C1=C(c2ccc(Cl)c(Cl)c2)CCC1` yielded a Ki of 0.22 µM.

In turn, `O=C(OCC(F)(F)F)C1=C(c2ccc(Cl)c(Cl)c2)CCC1` gave a Ki of 3.4 µM.

`O=C(Oc1ccccc1)C1=C(c2ccc(Cl)c(Cl)c2)CCC1`: the Ki amounted to 0.17 µM.

`O=C(OC1CCCCC1)C1=C(c2ccc(Cl)c(Cl)c2)CCC1` yielded a Ki of 12 µM.

Take `O=C(C1=C(c2ccc(Cl)c(Cl)c2)CCC1)N1CCCC1`: the Ki was found to be 58 µM.

Regarding `O=C(NCCF)C1=C(c2ccc(Cl)c(Cl)c2)CCC1`, the Ki is 0.07 µM.

Compound `CCN(CC)C(=O)C1=C(c2ccc(Cl)c(Cl)c2)CCC1` had a Ki of 94 µM.

`O=C(OCc1cccs1)C1=C(c2ccc(Cl)c(Cl)c2)CCC1` showed a Ki of 0.4 µM.

Take `O=C(OCc1ccco1)C1=C(c2ccc(Cl)c(Cl)c2)CCC1`: the Ki stood at 1.5 µM.

For the next assay, the species on record is Homo sapiens. In words: Selectivity for human DAT over human NET.
Turning to `CON(C)C(=O)C1=C(c2ccc(Cl)c(Cl)c2)CCC1`, the Ratio Ki is 39.

As to `O=C(NC1CCC1)C1=C(c2ccc(Cl)c(Cl)c2)CCC1`, the Ratio Ki was found to be 5.6.

In the case of `O=C(NCc1cccs1)C1=C(c2ccc(Cl)c(Cl)c2)CCC1`, the Ratio Ki amounted to 130.

On to `O=C(OCCF)C1=C(c2ccc(Cl)c(Cl)c2)CCC1`, for which the Ratio Ki was determined as 12.

Turning to `CONC(=O)C1=C(c2ccc(Cl)c(Cl)c2)CCC1`, the Ratio Ki was determined as 11.

In the case of `O=C(OCCO)C1=C(c2ccc(Cl)c(Cl)c2)CCC1`, the Ratio Ki is 30.

Turning to `O=C(C1=C(c2ccc(Cl)c(Cl)c2)CCC1)N1CCOCC1`, the Ratio Ki turned out to be 27.

Turning to `CC(C)OC(=O)C1=C(c2ccc(Cl)c(Cl)c2)CCC1`, the Ratio Ki turned out to be 10.

As for `O=C(NCc1ccco1)C1=C(c2ccc(Cl)c(Cl)c2)CCC1`, the Ratio Ki turned out to be 400.

As for `Cc1cccc(OC(=O)C2=C(c3ccc(Cl)c(Cl)c3)CCC2)c1`, the Ratio Ki is > 1700.

On to `Cc1ccccc1OC(=O)C1=C(c2ccc(Cl)c(Cl)c2)CCC1`, for which the Ratio Ki turned out to be 150.

Regarding `O=C(OCC(F)(F)F)C1=C(c2ccc(Cl)c(Cl)c2)CCC1`, the Ratio Ki came out at 50.

Turning to `COC(=O)C1=C(c2ccc(Cl)c(Cl)c2)CCC1`, the Ratio Ki was 6.

Take `O=C(Oc1ccccc1)C1=C(c2ccc(Cl)c(Cl)c2)CCC1`: the Ratio Ki came out at 500.

Turning to `O=C(OC1CCCCC1)C1=C(c2ccc(Cl)c(Cl)c2)CCC1`, the Ratio Ki is 11.

For `O=C(C1=C(c2ccc(Cl)c(Cl)c2)CCC1)N1CCCC1`, the Ratio Ki came to 7.

With `O=C(NCCF)C1=C(c2ccc(Cl)c(Cl)c2)CCC1`, the Ratio Ki was 110.

`CCN(CC)C(=O)C1=C(c2ccc(Cl)c(Cl)c2)CCC1`: the Ratio Ki came out at 2.2.

Take `O=C(OCc1cccs1)C1=C(c2ccc(Cl)c(Cl)c2)CCC1`: the Ratio Ki amounted to 110.

`O=C(OCc1ccco1)C1=C(c2ccc(Cl)c(Cl)c2)CCC1`: the Ratio Ki was found to be 41.

Another assay has as its target Sodium-dependent noradrenaline transporter (Homo sapiens, UniProt P23975). In words: Displacement of [125I]RTI55 from human NET transfected in COS1 cells. The assay is classed as cell-based, COS-1.
In turn, `CON(C)C(=O)C1=C(c2ccc(Cl)c(Cl)c2)CCC1` showed a Ki of 250 µM.

`O=C(NC1CCC1)C1=C(c2ccc(Cl)c(Cl)c2)CCC1` yielded a Ki of 50 µM.

`O=C(NCc1cccs1)C1=C(c2ccc(Cl)c(Cl)c2)CCC1` returned a Ki of 18 µM.

`O=C(OCCF)C1=C(c2ccc(Cl)c(Cl)c2)CCC1` had a Ki of 5.8 µM. This Ki is about 3.1-fold lower than that of the compound before.

For `CONC(=O)C1=C(c2ccc(Cl)c(Cl)c2)CCC1`, the affinity corresponds to a Ki of 9.2 µM.

The compound `O=C(OCCO)C1=C(c2ccc(Cl)c(Cl)c2)CCC1` registered a Ki of 9 µM.

`O=C(C1=C(c2ccc(Cl)c(Cl)c2)CCC1)N1CCOCC1` yielded a Ki of 300 µM.

With `CC(C)OC(=O)C1=C(c2ccc(Cl)c(Cl)c2)CCC1`, affinity was put at a Ki of 26 µM.

Compound `O=C(NCc1ccco1)C1=C(c2ccc(Cl)c(Cl)c2)CCC1` gave a Ki of 12 µM.

Regarding `Cc1cccc(OC(=O)C2=C(c3ccc(Cl)c(Cl)c3)CCC2)c1`, the Ki was > 100 µM.

`Cc1ccccc1OC(=O)C1=C(c2ccc(Cl)c(Cl)c2)CCC1` had a Ki of 33 µM.

`O=C(OCC(F)(F)F)C1=C(c2ccc(Cl)c(Cl)c2)CCC1`: the Ki is 170 µM. This Ki lies about 5.2-fold higher than the previous one.

For `O=C(Oc1ccccc1)C1=C(c2ccc(Cl)c(Cl)c2)CCC1`, the affinity corresponds to a Ki of 85 µM.

Regarding `O=C(OC1CCCCC1)C1=C(c2ccc(Cl)c(Cl)c2)CCC1`, the Ki worked out at 130 µM. This Ki lies about 1.5-fold higher than the previous one.

For the compound `O=C(C1=C(c2ccc(Cl)c(Cl)c2)CCC1)N1CCCC1`, the affinity, expressed as Ki, was 410 µM. This Ki lies about 3.2-fold higher than the previous one.

With `O=C(NCCF)C1=C(c2ccc(Cl)c(Cl)c2)CCC1`, the Ki was found to be 8 µM. This Ki is about 51-fold lower than that of the compound before.

As for `CCN(CC)C(=O)C1=C(c2ccc(Cl)c(Cl)c2)CCC1`, the affinity, expressed as Ki, was 210 µM.

Regarding `O=C(OCc1cccs1)C1=C(c2ccc(Cl)c(Cl)c2)CCC1`, the Ki is 42 µM. This Ki is about 5-fold lower than that of the compound before.

In turn, `O=C(OCc1ccco1)C1=C(c2ccc(Cl)c(Cl)c2)CCC1` yielded a Ki of 61 µM.

The target of the next assay is Sodium-dependent serotonin transporter (Homo sapiens, UniProt P31645). Put plainly: Displacement of [125I]RTI55 from human SERT transfected in COS1 cells. It counts as cell-based, COS-1.
Sequence of Sodium-dependent serotonin transporter (P31645 whole entry): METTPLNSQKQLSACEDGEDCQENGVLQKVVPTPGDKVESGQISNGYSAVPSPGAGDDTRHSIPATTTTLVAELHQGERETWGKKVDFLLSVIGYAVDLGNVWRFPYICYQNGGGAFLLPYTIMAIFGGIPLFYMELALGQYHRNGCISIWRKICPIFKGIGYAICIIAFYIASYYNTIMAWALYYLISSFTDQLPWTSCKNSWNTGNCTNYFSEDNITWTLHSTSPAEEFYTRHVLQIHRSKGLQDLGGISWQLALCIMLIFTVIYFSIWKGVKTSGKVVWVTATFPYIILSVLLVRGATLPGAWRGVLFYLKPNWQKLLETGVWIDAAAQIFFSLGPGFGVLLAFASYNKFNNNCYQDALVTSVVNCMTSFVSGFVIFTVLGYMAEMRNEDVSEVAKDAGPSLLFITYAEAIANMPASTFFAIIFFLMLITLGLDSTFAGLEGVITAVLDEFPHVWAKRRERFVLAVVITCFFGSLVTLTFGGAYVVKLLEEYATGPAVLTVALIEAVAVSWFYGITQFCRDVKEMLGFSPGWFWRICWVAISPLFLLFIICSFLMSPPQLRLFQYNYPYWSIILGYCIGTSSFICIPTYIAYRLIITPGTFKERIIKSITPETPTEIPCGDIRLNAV
On to `CON(C)C(=O)C1=C(c2ccc(Cl)c(Cl)c2)CCC1`, for which the affinity, expressed as Ki, was 540 µM.

As for `O=C(NC1CCC1)C1=C(c2ccc(Cl)c(Cl)c2)CCC1`, the Ki was > 1000 µM.

Turning to `O=C(NCc1cccs1)C1=C(c2ccc(Cl)c(Cl)c2)CCC1`, the affinity, expressed as Ki, was 110 µM.

As for `O=C(OCCF)C1=C(c2ccc(Cl)c(Cl)c2)CCC1`, the affinity, expressed as Ki, was 390 µM.

As for `CONC(=O)C1=C(c2ccc(Cl)c(Cl)c2)CCC1`, the Ki is > 500 µM.

In turn, `O=C(OCCO)C1=C(c2ccc(Cl)c(Cl)c2)CCC1` returned a Ki of 50 µM.

`O=C(C1=C(c2ccc(Cl)c(Cl)c2)CCC1)N1CCOCC1`: the Ki is > 500 µM.

With `CC(C)OC(=O)C1=C(c2ccc(Cl)c(Cl)c2)CCC1`, the Ki turned out to be 500 µM.

On to `O=C(NCc1ccco1)C1=C(c2ccc(Cl)c(Cl)c2)CCC1`, for which the Ki was 24 µM.

Take `Cc1cccc(OC(=O)C2=C(c3ccc(Cl)c(Cl)c3)CCC2)c1`: the Ki is > 1000 µM.

Take `Cc1ccccc1OC(=O)C1=C(c2ccc(Cl)c(Cl)c2)CCC1`: the Ki is > 500 µM.

For the compound `O=C(OCC(F)(F)F)C1=C(c2ccc(Cl)c(Cl)c2)CCC1`, the Ki was > 1000 µM.

For `O=C(Oc1ccccc1)C1=C(c2ccc(Cl)c(Cl)c2)CCC1`, the Ki is > 500 µM.

As for `O=C(OC1CCCCC1)C1=C(c2ccc(Cl)c(Cl)c2)CCC1`, the Ki was > 1000 µM.

With `O=C(C1=C(c2ccc(Cl)c(Cl)c2)CCC1)N1CCCC1`, the Ki was 520 µM.

For `O=C(NCCF)C1=C(c2ccc(Cl)c(Cl)c2)CCC1`, the Ki was > 500 µM.

Regarding `CCN(CC)C(=O)C1=C(c2ccc(Cl)c(Cl)c2)CCC1`, the Ki stood at 300 µM.

Regarding `O=C(OCc1cccs1)C1=C(c2ccc(Cl)c(Cl)c2)CCC1`, the affinity, expressed as Ki, was 910 µM.

Take `O=C(OCc1ccco1)C1=C(c2ccc(Cl)c(Cl)c2)CCC1`: the affinity, expressed as Ki, was 24 µM.

The term Ki denotes a measure of affinity in units of concentration, obtained from inhibition or displacement. Higher therefore signals weaker binding.
